Measured values: patent US12209102B2, “Heterocyclic compounds and uses thereof” (Kumquat Biosciences Inc., priority 2022, dated 2025)

Key:
Format in all cases: biochemical
[1] = target: T1, K-Ras G12D (Homo sapiens, UniProt P01116, G12D); assay: HTRF resonance energy transfer assay, K-Ras G12D / SOS1 interaction; settings: HTRF assay of Example 5; read-out: IC50 against K-Ras G12D
T1 construct: made in house; host or cells: E. coli BL21 (DE3)
From the text: (§1) This assay can be also used to assess a selective inhibition or reduction of signaling output of a mutant Ras protein relative to a wildtype, or relative to a different mutant Ras protein. For example, the equilibrium interaction of wildtype Kras or K-Ras mutant (e.g., wildtype or a mutant thereof) with SOS1 (e.g., hSOS1) can be assessed as a proxy or an indication for a subject compound's ability to bind and inhibit Ras protein. HTRF assay detects from (i) a fluorescence resonance energy transfer (FRET) donor (e.g., antiGST-Europium) that is bound to GST-tagged K-Ras mutant to (ii) a FRET acceptor (e.g., anti-6His-XL665) bound to a His-tagged hSOS1.
(§2) The assay buffer can contain˜5 mM HEPES pH 7.4, ˜150 mM NaCl, ˜ 1 mM DTT, 0.05% BSA and 0.0025%(v/v) Igepal. A Ras working solution is prepared in an assay buffer containing typically a suitable amount of the protein construct (e.g., GST-tagged K-Ras mutant) and the FRET donor (e.g., antiGST-Eu(K) from Cisbio, France). A SOS1 working solution is prepared in an assay buffer containing suitable amount of the protein construct (e.g., His-hSOS1) and the FRET acceptor (e.g., anti-6His-XL665 from Cisbio, France). A suitable amount of the protein construct will depend on the range of activity or range of IC50 values being detected or under investigation. For detecting IC50 within a range of 500 nM, the protein constructs of the same range of molarity can be utilized.
(§3) A fixed volume of DMSO with or without test compound is transferred into a 384-well plate. Ras working solution is added to all wells of the test plate. SOS1 working solution is added to all wells except for those that are subsequently filled the inhibitor control solution. Upon incubation for about 10 minutes or longer, the fluorescence is measured with a M1000Pro plate reader (Tecan) using HTRF detection (excitation 337 nm, emission 1: 620 nm, emission 2: 665 nm). Compounds are tested in duplicates at different concentrations (for example, 10 μM, 2.5 μM, 0.63 μM, 0.16 μM, 0.04 μM, 0.01 μM test compound). The ratiometric data (i.e., emission 2 divided by emission 1) is used to calculate IC50 values against Ras using GraphPad Prism (GraphPad software). Following this general procedure, samples were tested with or without a subject compound disclosed herein including compounds exemplified in Table 1 to assess their abilities to inhibit a K-Ras mutant relative to another mutant or WT. Signaling output measured in terms of IC50 values can be obtained, a ratio of IC50 against one mutant relative to another mutant can be calculated. For instance, a selective reduction of K-Ras G12D signaling output can be evidenced by a ratio greater than one. In particular, a selective reduction of K-Ras G12D signaling relative to K-Ras WT signaling is evidenced as the ratio of IC50 (against K-Ras WT) to IC50 (against K-Ras G12D) is greater than 1.

[2] = target: T2, K-Ras WT (Homo sapiens, UniProt P01116); assay: HTRF resonance energy transfer assay, K-Ras WT / SOS1 interaction; settings: HTRF assay of Example 5; read-out: IC50 against K-Ras WT
T2 construct: made in house; host or cells: E. coli BL21 (DE3)
T2 sequence (P01116 1-188 isoform P01116-2): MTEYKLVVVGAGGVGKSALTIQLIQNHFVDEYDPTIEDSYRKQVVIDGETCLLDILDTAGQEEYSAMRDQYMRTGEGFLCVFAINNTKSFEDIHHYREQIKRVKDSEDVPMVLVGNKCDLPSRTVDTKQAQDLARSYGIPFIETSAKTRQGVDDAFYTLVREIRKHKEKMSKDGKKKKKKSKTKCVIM
From the text: as §1, §2, §3

[3] = target: T3, K-Ras G12S (Homo sapiens, UniProt P01116, G12S); assay: HTRF resonance energy transfer assay, K-Ras G12S / SOS1 interaction; settings: HTRF assay of Example 5; read-out: IC50 against K-Ras G12S
T3 construct: made in house; host or cells: E. coli BL21 (DE3)
T3 sequence (P01116 1-188 isoform P01116-2 G12S): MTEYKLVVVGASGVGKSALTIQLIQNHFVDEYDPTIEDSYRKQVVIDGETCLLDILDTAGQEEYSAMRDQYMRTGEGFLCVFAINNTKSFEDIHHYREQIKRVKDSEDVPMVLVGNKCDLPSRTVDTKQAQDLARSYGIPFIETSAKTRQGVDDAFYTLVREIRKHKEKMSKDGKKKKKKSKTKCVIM
From the text: as §1, §2, §3

[4] = target: T4, K-Ras G12V (Homo sapiens, UniProt P01116, G12V); assay: HTRF resonance energy transfer assay, K-Ras G12V / SOS1 interaction; settings: HTRF assay of Example 5; read-out: IC50 against K-Ras G12V
T4 construct: made in house; host or cells: E. coli BL21 (DE3)
T4 sequence (P01116 1-188 isoform P01116-2 G12V): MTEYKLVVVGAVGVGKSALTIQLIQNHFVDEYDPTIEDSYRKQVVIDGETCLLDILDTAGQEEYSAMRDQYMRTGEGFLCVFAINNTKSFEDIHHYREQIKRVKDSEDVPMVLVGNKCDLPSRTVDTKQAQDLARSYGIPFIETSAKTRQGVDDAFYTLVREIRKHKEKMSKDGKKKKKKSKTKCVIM
From the text: as §1, §2, §3

T1 sequence (P01116 1-188 isoform P01116-2 G12D): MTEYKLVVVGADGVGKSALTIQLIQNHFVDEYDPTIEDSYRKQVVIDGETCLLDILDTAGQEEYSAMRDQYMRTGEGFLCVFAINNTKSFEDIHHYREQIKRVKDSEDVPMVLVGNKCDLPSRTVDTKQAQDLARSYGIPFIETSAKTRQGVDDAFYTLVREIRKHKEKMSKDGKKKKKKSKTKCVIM

Row | SMILES | IC50 [1] | IC50 [2] | IC50 [3] | IC50 [4]
1 | C=C(C(F)F)[C@H]1COc2c(Cl)c(-c3ccc(F)c4sc(N)c(C#N)c34)c(F)c3nc(OC[C@@]45CCCN4C[C@H](F)C5)nc(c23)N1CC(F)F (single isomer, unassigned) [Compound 629] | < 100 nM | < 100 nM | < 100 nM | < 100 nM
2 | N#Cc1c(N)sc2c(F)ccc(-c3c(Cl)c4c5c(nc(OC[C@@]67CCCN6C[C@H](F)C7)nc5c3F)N(CC(F)F)[C@@H](c3cnco3)CO4)c12 (single isomer, unassigned) [Compound 763] | < 100 nM | < 100 nM | < 100 nM | < 100 nM
3 | C=C[C@H]1COc2c(Cl)c(-c3ccc(F)c4sc(N)c(C#N)c34)c(F)c3nc(OC[C@@]45CCCN4C[C@H](F)C5)nc(c23)N1CCC(F)F (single isomer, unassigned) [Compound 906] | < 100 nM | < 100 nM | < 100 nM | < 100 nM
4 | N#Cc1c(N)sc2c(F)ccc(-c3c(Cl)c4c5c(nc(OC[C@@]67CCCN6C[C@H](F)C7)nc5c3F)N(C3CCOC3)[C@@H](C(F)F)CO4)c12 (stereo partly drawn) [Compound 620, 2-amino-4-((5R)-8-chloro-5-(difluoromethyl)-10-fluoro-2-(((2R,7aS)-2-fluorotetrahydro-1H-pyrrolizin-7a(5H)-yl)methoxy)-4-(tetrahydrofuran-3-yl)-5,6-dihydro-4H-[1,4]oxazepino[5,6,7-de]quinazolin-9-yl)-7-fluorobenzo[b]thiophene-3-carbonitrile] | < 100 nM | < 100 nM | – | –
5 | N#Cc1c(N)sc2c(F)ccc(-c3c(Cl)c4c5c(nc(OC[C@@]67CCCN6C[C@H](F)C7)nc5c3F)N(CC(F)F)[C@@H](C3CCC3)CO4)c12 [Compound 692, 2-amino-4-((S)-8-chloro-5-cyclobutyl-4-(2,2-difluoroethyl)-10-fluoro-2-(((2R,7aS)-2-fluorotetrahydro-1H-pyrrolizin-7a(5H)-yl)methoxy)-5,6-dihydro-4H-[1,4]oxazepino[5,6,7-de]quinazolin-9-yl)-7-fluorobenzo[b]thiophene-3-carbonitrile] | < 100 nM | < 100 nM | – | < 100 nM
6 | C[C@H]1COc2c(Cl)c(-c3ccc(F)c4sc(N)c(C#N)c34)c(F)c3nc(OC[C@@]45CCCN4C[C@H](F)C5)nc(c23)N1CC(F)F [Compound 783, 2-amino-4-((5S)-8-chloro-4-(2,2-difluoroethyl)-10-fluoro-2-(((2R,7aS)-2-fluorotetrahydro-1H-pyrrolizin-7a(5H)-yl)methoxy)-5-methyl-5,6-dihydro-4H-[1,4]oxazepino[5,6,7-de]quinazolin-9-yl)-7-fluorobenzo[b]thiophene-3-carbonitrile] | < 100 nM | – | – | –
7 | C[C@H]1CN(C2CCN(C(=O)C(F)F)CC2)c2nc(OC[C@@]34CCCN3C[C@H](F)C4)nc3c(F)c(-c4ccc(F)c5sc(N)c(C#N)c45)c(Cl)c(c23)O1 [Compound 822, 2-amino-4-((6S)-8-chloro-4-(1-(2,2-difluoroacetyl)piperidin-4-yl)-10-fluoro-2-(((2R,7aS)-2-fluorotetrahydro-1H-pyrrolizin-7a(5H)-yl)methoxy)-6-methyl-5,6-dihydro-4H-[1,4]oxazepino[5,6,7-de]quinazolin-9-yl)-7-fluorobenzo[b]thiophene-3-carbonitrile] | < 100 nM | < 100 nM | < 100 nM | –
8 | CS(=O)(=O)NCC1COc2c(Cl)c(-c3ccc(F)c4sc(N)c(C#N)c34)c(F)c3nc(OC[C@@]45CCCN4C[C@H](F)C5)nc(c23)N1CC(F)F (stereo partly drawn) [Compound 867, N-((9-(2-amino-3-cyano-7-fluorobenzo[b]thiophen-4-yl)-8-chloro-4-(2,2-difluoroethyl)-10-fluoro-2-(((2R,7aS)-2-fluorotetrahydro-1H-pyrrolizin-7a(5H)-yl)methoxy)-5,6-dihydro-4H-[1,4]oxazepino[5,6,7-de]quinazolin-5-yl)methyl)methanesulfonamide] | < 100 nM | < 100 nM | < 100 nM | –
9 | C[C@H]1CN(CC2(N(C)C)CCC2)c2nc(OC[C@@]34CCCN3C[C@H](F)C4)nc3c(F)c(-c4ccc(F)c5sc(N)c(C#N)c45)c(Cl)c(c23)O1 [Compound 910, 2-amino-4-((6S)-8-chloro-4-((1-(dimethylamino)cyclobutyl)methyl)-10-fluoro-2-(((2R,7aS)-2-fluorotetrahydro-1H-pyrrolizin-7a(5H)-yl)methoxy)-6-methyl-5,6-dihydro-4H-[1,4]oxazepino[5,6,7-de]quinazolin-9-yl)-7-fluorobenzo[b]thiophene-3-carbonitrile] | < 100 nM | < 100 nM | – | –
10 | N#Cc1c(N)sc2c(F)ccc(-c3c(Cl)c4c5c(nc(OC[C@@]67CCCN6C[C@H](F)C7)nc5c3F)N(CC3(C(F)(F)F)CC3)CCO4)c12 [Compound 953, 2-amino-4-(8-chloro-10-fluoro-2-(((2R,7aS)-2-fluorotetrahydro-1H-pyrrolizin-7a(5H)-yl)methoxy)-4-((1-(trifluoromethyl)cyclopropyl)methyl)-5,6-dihydro-4H-[1,4]oxazepino[5,6,7-de]quinazolin-9-yl)-7-fluorobenzo[b]thiophene-3-carbonitrile] | < 100 nM | < 100 nM | < 100 nM | –
11 | N#Cc1c(N)sc2c(F)ccc(-c3c(Cl)c4c5c(nc(OC[C@@]67CCCN6C[C@H](F)C7)nc5c3F)N(CC(F)F)C(C3CCNC3)CO4)c12 (stereo partly drawn) [Compound 1034, 2-amino-4-(8-chloro-4-(2,2-difluoroethyl)-10-fluoro-2-(((2R,7aS)-2-fluorotetrahydro-1H-pyrrolizin-7a(5H)-yl)methoxy)-5-(pyrrolidin-3-yl)-5,6-dihydro-4H-[1,4]oxazepino[5,6,7-de]quinazolin-9-yl)-7-fluorobenzo[b]thiophene-3-carbonitrile] | < 100 nM | < 100 nM | < 100 nM | –
12 | C[C@H](Oc1nc2c3c(c(Cl)c(-c4ccc(F)c5sc(N)c(C#N)c45)c(F)c3n1)OCCN2C1CCCOCC1)[C@@H]1CCCN1C (stereo partly drawn) [Compound 1121, 2-amino-4-(8-chloro-10-fluoro-2-((S)-1-((S)-1-methylpyrrolidin-2-yl)ethoxy)-4-(oxepan-4-yl)-5,6-dihydro-4H-[1,4]oxazepino[5,6,7-de]quinazolin-9-yl)-7-fluorobenzo[b]thiophene-3-carbonitrile] | – | < 100 nM | < 100 nM | < 100 nM
13 | N#Cc1c(N)sc2c(F)ccc(-c3c(Cl)c4c5c(nc(OC[C@@]67CCCN6C[C@H](F)C7)nc5c3F)N(C3CCOC3)[C@@H](C3(C#N)CC3)CO4)c12 (stereo partly drawn) [Compound 1130, 2-amino-4-((5S)-8-chloro-5-(1-cyanocyclopropyl)-10-fluoro-2-(((2R,7aS)-2-fluorotetrahydro-1H-pyrrolizin-7a(5H)-yl)methoxy)-4-(tetrahydrofuran-3-yl)-5,6-dihydro-4H-[1,4]oxazepino[5,6,7-de]quinazolin-9-yl)-7-fluorobenzo[b]thiophene-3-carbonitrile] | – | < 100 nM | < 100 nM | < 100 nM
14 | CN1c2nc(OC[C@@]34CCCN3C[C@H](F)C4)nc3c(F)c(-c4ccc(F)c5sc(N)c(C#N)c45)c(Cl)c(c23)OCC[C@H]1C1(F)CC1 [Compound 1221, 2-amino-4-((5S)-9-chloro-11-fluoro-5-(1-fluorocyclopropyl)-2-(((2R,7aS)-2-fluorotetrahydro-1H-pyrrolizin-7a(5H)-yl)methoxy)-4-methyl-4,5,6,7-tetrahydro-[1,5]oxazocino[4,3,2-de]quinazolin-10-yl)-7-fluorobenzo[b]thiophene-3-carbonitrile] | – | < 100 nM | < 100 nM | < 100 nM
